Experimental data reported in patent US20260256792A1, “TREATMENT OF CHRONIC SPONTANEOUS URTICARIA BY ADMINISTERING (R)-2-[3-[4-AMINO-3-(2-FLUORO-4-PHENOXY-PHENYL)PYRAZOLO[3,4-D]PYRIMIDIN-1-YL]PIPERIDINE-1-CARBONYL]-4-METHYL-4-[4-(OXETAN-3-YL)PIPERAZIN-1-YL]PENT-2-ENENITRILE” (priority 2023, published 2026).

System: moderate-to-severe chronic spontaneous urticaria (CSU)
Experiment: Phase 2 CSU study: itch severity score over 7 days (ISS7)
Assay type: in vivo, human
Settings: for ISS7 Post-baseline Mean (SD) / ISS7 % Change difference for rilzabrutinib vs. placebo LS Mean (95% CI) / ISS7 % Change from baseline LS Mean (SE) / ISS7 Change difference for rilzabrutinib vs. placebo LS Mean (95% CI) / ISS7 Change from baseline LS Mean (SE): ITT; for Imputed non-responder n (%) (ISS7 reduction of 5 points or more) / Non-responder n (%) (ISS7 reduction of 5 points or more) / OR for rilzabrutinib vs. placebo (ISS7 reduction of 5 points or more) / RRD (%) for rilzabrutinib vs. placebo (ISS7 reduction of 5 points or more) / Responder n (%) (ISS7 reduction of 5 points or more): Omalizumab-Naïve Population, 400 mg BID
Excerpt: The study comprises a 12 week, randomized, double-blind, placebo-controlled, multi-center, dose-ranging efficacy and safety phase, followed by a 40 week open label extension (OLE) phase (see FIG. 1). The study consists of three phases and an optional OLE phase. […] Clinically, CSU is characterized by the spontaneous and recurrent appearance of pruritic hives. The proposed primary endpoints were the UAS7 at Week 12 in EU and EU reference countries and the ISS7 in the US. Regardless of where a participant was from, all assessments were the same. The UAS7 score is a composite score containing both the HSS7 and the ISS7. This allowed a global assessment of the two key components of urticaria: hives and itch. […] The UAS is a validated PRO measure. […] The daily UAS scores range from 0 to 6 point/day. […] Patients were to complete the UAS using the e-diary. […] The following secondary endpoints were to be analyzed using the same approach as for the primary endpoint: • Change from baseline in UAS7 at Week 4 • Change from baseline in UAS7 at Week 12 (for US and US reference countries) • Change from baseline in ISS7 at Week 12 (except US and US reference countries) • Change from baseline in HSS7 at Week 12

Compound: CC(C)(C=C(C#N)C(=O)N1CCC[C@@H](n2nc(-c3ccc(Oc4ccccc4)cc3F)c3c(N)ncnc32)C1)N1CCN(C2COC2)CC1 [rilzabrutinib, (R)-2-[3-[4-amino-3-(2-fluoro-4-phenoxy-phenyl)pyrazolo[3,4-d]pyrimidin-1-yl]piperidine-1-carbonyl]-4-methyl-4-[4-(oxetan-3-yl)piperazin-1-yl]pent-2-enenitrile]
- ISS7 Post-baseline Mean (SD) (400 mg QPM, Week 8): 10.61 (5.22)
- ISS7 % Change difference for rilzabrutinib vs. placebo LS Mean (95% CI) (400 mg QPM, Week 9): −7.07%
- ISS7 % Change from baseline LS Mean (SE) (400 mg QPM, Week 9): −37.93%
- ISS7 Change difference for rilzabrutinib vs. placebo LS Mean (95% CI) (400 mg QPM, Week 9): −0.74
- ISS7 Change from baseline LS Mean (SE) (400 mg QPM, Week 9): −6.24 (0.96)
- ISS7 Post-baseline Mean (SD) (400 mg QPM, Week 9): 10.45 (5.08)
- ISS7 % Change difference for rilzabrutinib vs. placebo LS Mean (95% CI) (400 mg QPM, Week 10): −1.26%
- ISS7 % Change from baseline LS Mean (SE) (400 mg QPM, Week 10): −39.07 (6.29) %
- ISS7 Change difference for rilzabrutinib vs. placebo LS Mean (95% CI) (400 mg QPM, Week 10): −0.17
- ISS7 Change from baseline LS Mean (SE) (400 mg QPM, Week 10): −6.47 (1.02)
- ISS7 Post-baseline Mean (SD) (400 mg QPM, Week 10): 10.36 (5.24)
- ISS7 % Change difference for rilzabrutinib vs. placebo LS Mean (95% CI) (400 mg QPM, Week 11): −3.30%
- ISS7 % Change from baseline LS Mean (SE) (400 mg QPM, Week 11): −36.92 (6.23) %
- ISS7 Change difference for rilzabrutinib vs. placebo LS Mean (95% CI) (400 mg QPM, Week 11): −0.04
- ISS7 Change from baseline LS Mean (SE) (400 mg QPM, Week 11): −5.90 (0.99)
- ISS7 Post-baseline Mean (SD) (400 mg QPM, Week 11): 10.97 (5.48)
- ISS7 % Change difference for rilzabrutinib vs. placebo LS Mean (95% CI) (400 mg QPM, Week 12): 1.35%
- ISS7 % Change from baseline LS Mean (SE) (400 mg QPM, Week 12): −35.23 (6.55) %
- ISS7 Change difference for rilzabrutinib vs. placebo LS Mean (95% CI) (400 mg QPM, Week 12): 0.85
- ISS7 Change from baseline LS Mean (SE) (400 mg QPM, Week 12): −5.46 (1.03)
- ISS7 Post-baseline Mean (SD) (400 mg QPM, Week 12): 11.37 (5.51)
- ISS7 % Change difference for rilzabrutinib vs. placebo LS Mean (95% CI) (400 mg TID, Week 1): −29.95%
- ISS7 % Change from baseline LS Mean (SE) (400 mg TID, Week 1): −40.41 (5.24) %
- ISS7 Change difference for rilzabrutinib vs. placebo LS Mean (95% CI) (400 mg TID, Week 1): −4.65
- ISS7 Change from baseline LS Mean (SE) (400 mg TID, Week 1): −6.65 (0.76)
- ISS7 Post-baseline Mean (SD) (400 mg TID, Week 1): 9.20 (5.60)
- ISS7 % Change difference for rilzabrutinib vs. placebo LS Mean (95% CI) (400 mg TID, Week 2): −29.81%
- ISS7 % Change from baseline LS Mean (SE) (400 mg TID, Week 2): −49.29 (5.21) %
- ISS7 Change difference for rilzabrutinib vs. placebo LS Mean (95% CI) (400 mg TID, Week 2): −4.51
- ISS7 Change from baseline LS Mean (SE) (400 mg TID, Week 2): −7.92 (0.79)
- ISS7 Post-baseline Mean (SD) (400 mg TID, Week 2): 7.97 (5.99)
- ISS7 % Change difference for rilzabrutinib vs. placebo LS Mean (95% CI) (400 mg TID, Week 3): −27.63%
- ISS7 % Change from baseline LS Mean (SE) (400 mg TID, Week 3): −50.07 (5.21) %
- ISS7 Change difference for rilzabrutinib vs. placebo LS Mean (95% CI) (400 mg TID, Week 3): −3.76
- ISS7 Change from baseline LS Mean (SE) (400 mg TID, Week 3): −7.84 (0.83)
- ISS7 Post-baseline Mean (SD) (400 mg TID, Week 3): 7.93 (5.46)
- ISS7 % Change difference for rilzabrutinib vs. placebo LS Mean (95% CI) (400 mg TID, Week 4): −23.20%
- ISS7 % Change from baseline LS Mean (SE) (400 mg TID, Week 4): −48.97 (5.57) %
- ISS7 Change difference for rilzabrutinib vs. placebo LS Mean (95% CI) (400 mg TID, Week 4): −3.13
- ISS7 Change from baseline LS Mean (SE) (400 mg TID, Week 4): −7.75 (0.88)
- ISS7 Post-baseline Mean (SD) (400 mg TID, Week 4): 7.54 (5.21)
- ISS7 % Change difference for rilzabrutinib vs. placebo LS Mean (95% CI) (400 mg TID, Week 5): −21.69%
- ISS7 % Change from baseline LS Mean (SE) (400 mg TID, Week 5): −54.96 (5.32) %
- ISS7 Change difference for rilzabrutinib vs. placebo LS Mean (95% CI) (400 mg TID, Week 5): −3.36
- ISS7 Change from baseline LS Mean (SE) (400 mg TID, Week 5): −8.93 (0.86)
- ISS7 Post-baseline Mean (SD) (400 mg TID, Week 5): 6.70 (5.91)
- ISS7 % Change difference for rilzabrutinib vs. placebo LS Mean (95% CI) (400 mg TID, Week 6): −26.88%
- ISS7 % Change from baseline LS Mean (SE) (400 mg TID, Week 6): −55.31 (5.83) %
- ISS7 Change difference for rilzabrutinib vs. placebo LS Mean (95% CI) (400 mg TID, Week 6): −4.09
- ISS7 Change from baseline LS Mean (SE) (400 mg TID, Week 6): −8.97 (0.93)
- ISS7 Post-baseline Mean (SD) (400 mg TID, Week 6): 6.81 (6.20)
- ISS7 % Change difference for rilzabrutinib vs. placebo LS Mean (95% CI) (400 mg TID, Week 7): −24.96%
- ISS7 % Change from baseline LS Mean (SE) (400 mg TID, Week 7): −53.83 (5.69) %
- ISS7 Change difference for rilzabrutinib vs. placebo LS Mean (95% CI) (400 mg TID, Week 7): −3.71
- ISS7 Change from baseline LS Mean (SE) (400 mg TID, Week 7): −8.71 (0.91)
- ISS7 Post-baseline Mean (SD) (400 mg TID, Week 7): 7.13 (5.42)
- ISS7 % Change difference for rilzabrutinib vs. placebo LS Mean (95% CI) (400 mg TID, Week 8): −21.97%
- ISS7 % Change from baseline LS Mean (SE) (400 mg TID, Week 8): −54.76 (5.95) %
- ISS7 Change difference for rilzabrutinib vs. placebo LS Mean (95% CI) (400 mg TID, Week 8): −3.05
- ISS7 Change from baseline LS Mean (SE) (400 mg TID, Week 8): −8.66 (0.95)
- ISS7 Post-baseline Mean (SD) (400 mg TID, Week 8): 6.72 (5.76)
- ISS7 % Change difference for rilzabrutinib vs. placebo LS Mean (95% CI) (400 mg TID, Week 9): −24.57%
- ISS7 % Change from baseline LS Mean (SE) (400 mg TID, Week 9): −55.43 (6.01) %
- ISS7 Change difference for rilzabrutinib vs. placebo LS Mean (95% CI) (400 mg TID, Week 9): −3.35
- ISS7 Change from baseline LS Mean (SE) (400 mg TID, Week 9): −8.85 (0.95)
- ISS7 Post-baseline Mean (SD) (400 mg TID, Week 9): 6.33 (5.52)
- ISS7 % Change difference for rilzabrutinib vs. placebo LS Mean (95% CI) (400 mg TID, Week 10): −18.42%
- ISS7 % Change from baseline LS Mean (SE) (400 mg TID, Week 10): −56.23 (6.14) %
- ISS7 Change difference for rilzabrutinib vs. placebo LS Mean (95% CI) (400 mg TID, Week 10): −2.68
- ISS7 Change from baseline LS Mean (SE) (400 mg TID, Week 10): −8.98 (0.99)
- ISS7 Post-baseline Mean (SD) (400 mg TID, Week 10): 6.43 (5.48)
- ISS7 % Change difference for rilzabrutinib vs. placebo LS Mean (95% CI) (400 mg TID, Week 11): −22.13%
- ISS7 % Change from baseline LS Mean (SE) (400 mg TID, Week 11): −55.75 (6.15) %
- ISS7 Change difference for rilzabrutinib vs. placebo LS Mean (95% CI) (400 mg TID, Week 11): −3.15
- ISS7 Change from baseline LS Mean (SE) (400 mg TID, Week 11): −9.02 (0.96)
- ISS7 Post-baseline Mean (SD) (400 mg TID, Week 11): 6.57 (5.76)
- ISS7 % Change difference for rilzabrutinib vs. placebo LS Mean (95% CI) (400 mg TID, Week 12): −23.23%
- ISS7 % Change from baseline LS Mean (SE) (400 mg TID, Week 12): −59.81 (6.28) %
- ISS7 Change difference for rilzabrutinib vs. placebo LS Mean (95% CI) (400 mg TID, Week 12): −3.26
- ISS7 Change from baseline LS Mean (SE) (400 mg TID, Week 12): −9.58 (1.01)
- ISS7 Post-baseline Mean (SD) (400 mg TID, Week 12): 5.59 (5.58)
- Imputed non-responder n (%) (ISS7 reduction of 5 points or more) (Week 1): 0 n (%)
- Non-responder n (%) (ISS7 reduction of 5 points or more) (Week 1): 18 (51.4) n (%)
- OR for rilzabrutinib vs. placebo (ISS7 reduction of 5 points or more) (Week 1): 3.240
- RRD (%) for rilzabrutinib vs. placebo (ISS7 reduction of 5 points or more) (Week 1): 25.3%
- Responder n (%) (ISS7 reduction of 5 points or more) (Week 1): 17 (48.6) n (%)
- Imputed non-responder n (%) (ISS7 reduction of 5 points or more) (Week 2): 1 (2.9) n (%)
- Non-responder n (%) (ISS7 reduction of 5 points or more) (Week 2): 17 (48.6) n (%)
- OR for rilzabrutinib vs. placebo (ISS7 reduction of 5 points or more) (Week 2): 2.836
- RRD (%) for rilzabrutinib vs. placebo (ISS7 reduction of 5 points or more) (Week 2): 24.1%
- Responder n (%) (ISS7 reduction of 5 points or more) (Week 2): 18 (51.4) n (%)
